A melting point compilation (Tetko et al.; mined from patent text by program, amines drawn as free bases though some values may be those of a salt)

| Structure (SMILES) | melting point |
| --- | --- |
| Nc1cccc(S(=O)(=O)NCc2ccccn2)c1 | 124 °C |
| COc1ccc(SC2SC(=O)NC2=O)cc1 (stereo not drawn) | 89 to 91 °C |
| CCC1=NN(CCO[Si](C)(C)C(C)(C)C)C(=O)C1Oc1cc(C#N)cc(C#N)c1 (stereo not drawn) | 204 °C |
| O=C(O)c1ccc(CCCC2SCC(=O)N2C/C=C\C2(O)CCCCC2)cc1 (stereo not drawn) | 118 to 120 °C |
| Cn1c(=O)n(C(=O)OC(C)(C)C)c2ccc(Br)cc21 | 98 to 99 °C |
| Cn1cc(-c2ccncc2)cc(N)c1=O | 175 to 176 °C |
| Cc1c(-c2ccccc2)oc2c(OCCN=[N+]=[N-])cccc2c1=O | 119 to 120 °C |
| CC(C)C(C)(C)C(O)C(Cc1ccc(Cl)cc1)n1cncn1 (stereo not drawn) | 106 °C |
| C=CCn1c(=O)ccc2cc(F)c(-n3c(=O)cc(C(F)(F)F)n(C)c3=O)cc21 | 178 to 179 °C |
| CCCCCCCCCCOc1cccc(Nc2nnc(Cc3ccncc3)c3ccccc23)c1 | 116 to 119 °C |
| Cc1ocnc1-c1cc(C(C)(C)C)c(O)c(C(C)(C)C)c1 | 105 to 107 °C |
| O=C(O)CCCCCCCCCCCOC(=O)OCC(Cl)(Cl)Cl | 44.6 to 46.4 °C |
| Cn1cc(-c2cnccn2)cc(Br)c1=O | 196 to 197 °C |
| Cn1cc(C2=C(c3c4n(c5ccccc35)CCC4)C(=O)NC2=O)c2ccccc21 | 260 to 270 °C |
| Cc1cccc(NC(=O)NC2N=C(c3ccccc3F)c3ccccc3N(Cc3nccc4c3CCCC4)C2=O)c1 (racemic) | 207 to 210 °C |
| CC(C)(C)c1nc(Cl)n(-c2c(Cl)cc(Cl)cc2Cl)n1 | 98 to 98.5 °C |
| CCc1c(C(=O)c2cc(C)cc(C=CC#N)c2)[nH]c(=O)[nH]c1=O | 305 to 306 °C |
| Fc1ccc(C(Cl)(Cn2cncn2)C(F)(F)F)c(F)c1 (stereo not drawn) | 87 to 88 °C |
| CN(Cc1cc(C(F)(F)F)cc(C(F)(F)F)c1)C(=O)c1c(-c2ccccc2C(F)(F)F)c2ccccc2c(=O)n1C | 159 to 160 °C |
| CN1CCN(c2ccc(F)cc2C=C2CCCN(c3ccc(Cl)c(Cl)c3)C2=O)CC1 | 161 to 162 °C |
| OCC12OC1CC(OCc1ccccc1)C2COCc1ccccc1 (stereo not drawn) | 60 to 62 °C |
| c1cnc2c(c1)NCc1cccn1C2 | 171 to 172 °C |
| COc1cc(OC)c2c(=O)c3oc4ccc(OC)cc4c3oc2c1 | 262 to 264 °C |
| Cc1nc(-c2ncn3c2[C@@H]2CCCN2C(=O)c2c(Cl)cccc2-3)no1 | 205 to 206 °C |
| CSC(=NC(=O)N(C)C)NC(=O)N(C)C | 116 to 118 °C |
| Cc1ccc(C(C)(C)C)cc1P(=O)(O)c1cc(C(C)(C)C)ccc1C | 182 to 183 °C |
| C=CCOc1cn(C)c2cc(F)ccc2c1=O | 158 to 159 °C |

| Structure (SMILES) | melting point |
| --- | --- |
| CC12CCC(=O)NC1CCc1cc(-c3cnc4ccccc4c3)ccc12 (single isomer, unassigned; (+)) | 265 to 266 °C |
| COc1ccc(C2=NO[C@]3(CCOC3)C2)cc1OC1CCCC1 | 110 °C |
| N#Cc1ccc(N2c3cc(Cl)ccc3C(=O)OC23CCNCC3)cc1 | 183 to 185 °C |
| Cc1ccc(S(=O)(=O)N2CC3CCCNC3C2)cc1 (stereo not drawn) | 95 to 97 °C |
| OC1CCOc2ccc(C=Cc3nc4cc(F)ccc4s3)cc21 (stereo not drawn) | 184 to 186 °C |
| COc1cc(C[NH+]([O-])C(=O)C(F)(F)F)ccn1 (stereo not drawn) | 176 to 178 °C |
| O=C1CC(c2cccc(-n3ccnn3)c2)=Nc2ccc(-c3cccc(F)c3F)cc2N1 | 230 °C |
| Cc1cc(-c2ccc(C(F)(F)F)nc2)cc(-c2cccc(-c3ccc(S(N)(=O)=O)s3)c2)n1 | 231 to 233 °C |
| CNC(=O)N1C=CSC1c1sc(SC)c2c1CC(C)(C)CC2=O (stereo not drawn) | 202 to 204 °C |
| CN(C(=O)CCCOc1ccc2[nH]c(=O)oc(=O)c2c1)C1CCCCC1 | 222 to 224 °C |
| Nc1cccc2snnc12 | 67 °C |
| COc1cc(Nc2c(C#N)cnc3cc(/C=C/c4ccncc4)ccc23)c(Cl)cc1Cl | 218 to 219 °C |
| N#CCc1nc(C(F)(F)F)ccc1C(=O)O | 152 to 153 °C |
| c1ccc(C2(Cn3cncn3)OCCO2)cc1 | 127 °C |
| O=C(Cc1ccccc1)c1ccc(OC=C(F)F)cc1 | 81 to 85 °C |
| O=Cc1cccc(-c2cccc3ccccc23)n1 | 65 to 66 °C |
| O=[PH]1Oc2ccccc2-c2ccccc21 (stereo not drawn) | 116 °C |
| Clc1cc(Cl)nc(N2CCOCC2)n1 | 140 °C |
| CNc1nc(N)nc2c1ncn2C1CC(F)C(CO)O1 (stereo not drawn) | 111 °C |
| CC1CNc2ccc(NC3=NCCN3)c(Br)c2N1 (stereo not drawn) | 250 to 251 °C |
| CC(=O)Oc1cccc(C=Cc2ccc3ccccc3n2)c1 | 86 to 87 °C |
| Cc1cc(=O)n(C)c(=O)n1C | 113 to 114 °C |
| CC(C)(C)NS(=O)(=O)c1cnc(Cl)s1 | 75 °C |
| Cc1cc(C)c(-n2c(C)cc(C)c(C#N)c2=O)cc1N | 218 to 219 °C |
| CN1CCC(C(=O)Nc2ccc(CN(C)C3CCOCC3)cc2)=Cc2cc(-c3ccc(OC(F)(F)F)cc3)ccc21 | 182 to 183 °C |
| C(=C\c1nc(COc2ccc(CCCn3nccn3)cc2)co1)/c1ccccc1 | 103 to 104 °C |

Further lines, results first:

| melting point | Structure (SMILES) |
| --- | --- |
| 221 to 224 °C | O=C(O)C1Cc2c(c(Cl)cc3c(-c4ccccc4)noc23)O1 (stereo not drawn) |
| 138 to 142 °C | Cc1cccc(C(=O)Nc2ccc(C(=O)N3Cc4ccccc4Cc4ccccc43)cc2)c1C |
| 240 to 244 °C | O=c1[nH]c2ccc(C(O)CCN3CCC(Cc4ccccc4)CC3)cc2[nH]1 (stereo not drawn) |
| 217 to 219 °C | O=C(O)c1ccc(NC(=O)c2ccccc2-c2ccccc2)cc1Cl |
| 85 to 87 °C | C=C(Br)CCC(=O)NC(C(=O)OCC)C(=O)OCC |
| 129 °C | COc1ccc(COc2cccc(C(=O)O)c2OCc2ccc(OC)cc2)cc1 |
| 118 to 120 °C | CCCC(O)(CCC)c1ccc(C2=CC=CC(OCc3ccc(CO)c(CO)c3)C2(C)C)cc1 (stereo not drawn) |
| 152 to 153 °C | COc1cc(COc2nn(-c3ccccc3)cc2/C=C/S(C)(=O)=O)ccc1OCc1nc(-c2ccco2)oc1C |
| 171 to 172 °C | CCOCc1nc2c(N)nc3ccccc3c2n1CCCc1cc(-c2ccccc2)no1 |
| 280 to 281 °C | Cc1ccc(N2C(=O)C(O)=C(C(=O)c3ccc(C(C)C)cc3)C2c2ccc(OC(C)C)cc2)nn1 (stereo not drawn) |
| 175 to 178 °C | O=C(N[C@@H](CSC(=O)c1ccccc1)C(=O)N[C@@H](Cc1c[nH]c2ccccc12)C(=O)O)c1ccccc1 |
| 175 to 178 °C | CSc1nnc(Cc2ccccc2S(N)(=O)=O)s1 |
| 199 °C | OC1CSC(Oc2ccc(-c3ccc(F)nc3)nc2Cl)C(O)C1O (stereo not drawn) |
| 225 to 229 °C | CC(C)Oc1ccc(C=C2CCn3c2nc2cc(NC(=O)C(=O)O)ccc2c3=O)cc1 |
| 275 °C | CO[C@@H]1CN(CCn2c(C)nc3ccccc3c2=O)CC[C@@H]1NC(=O)c1cc(Cl)c(N)c2c1OCC2 (relative stereo) |
| 162 to 164 °C | COC(=O)CCc1c[nH]c2ccccc12 |
| 141 to 143 °C | CCCC1=C(C(=O)OCC)C(c2ccccc2Cl)c2cn(C(=O)OC)nc2N1 (stereo not drawn) |
| 188 to 191 °C | COc1cccc(CNC(=O)c2cc3c(=O)n(CCC(=O)c4ccccc4)c(=O)n(C)c3s2)c1 |
| 127 to 128 °C | CCCCN1C(=O)c2cncnc2N(C(=O)CN2CCOCC2)c2ccccc21 |
| 54 to 58 °C | COc1cc(OC)nc(Sc2nccc(-c3cccc(Cl)c3)c2C(=O)NS(C)(=O)=O)n1 |
| 74 to 77 °C | COc1ccc(C(=O)c2ccccc2F)c(Cl)c1Cl |
| 280 to 283 °C | CN(C)c1ccc2c(=O)c(-c3nnnn3C)cn(C)c2c1 |
| 232 to 233 °C | COC(=O)c1nc2cc(Cl)ccc2c(O)c1C(=O)OC |

| melting point | Structure (SMILES) |
| --- | --- |
| 202 to 204 °C | CCC(C)C(NC(=O)OC)C(=O)NC(Cc1ccccc1)C(O)CN(Cc1ccc(-c2cncs2)cc1)NC(=O)C(NC(=O)OC)C(C)C (stereo not drawn) |
| 166 to 171 °C | CCc1c2cccccc-2[nH]c1=O |
| 223 to 225 °C | CC(C)CC(=O)Nc1cccc(-c2ccnc3c(-c4cc(Cl)cc(Cl)c4)cnn23)c1 |
| 200 to 204 °C | CC(C)C[C@H](NC(=O)[C@H](Cc1cccc2ccccc12)NC(=O)OCc1ccccc1)C(=O)NN |
| 142 to 145 °C | Cc1ccc(S(=O)(=O)OCCc2cccc3c(S(=O)(=O)c4ccccc4)c[nH]c23)cc1 |
| 153 °C | CCOC(=O)C1=C(C(=O)OCC)C(c2cccc([N+](=O)[O-])c2)C(C(=O)OCC)=C(CC)N1 (stereo not drawn) |
| 210 to 212 °C | COC(=O)CNc1cccc2c1C(=O)N(C1CCC(=O)NC1=O)C2=O (stereo not drawn) |
| 45.5 to 46.5 °C | Nc1c(Cl)cc(C(O)CNCCCCCCOCCOCCc2ccccn2)cc1Cl (stereo not drawn) |
| 140 to 142 °C | C[C@]1(COc2ccc(N3CCC(COc4ccc(CCl)cc4)CC3)cc2)Cn2cc([N+](=O)[O-])nc2O1 |
| 109 to 110 °C | COC(=O)Cn1c(=O)c2ccccc2n(CCCN2CCC(OC(c3ccccc3)c3ccccc3)CC2)c1=O |
| 182 to 185 °C | OC(Cc1nc[nH]n1)(Cc1nc[nH]n1)c1ccc(Cl)cc1Cl |
| 128 to 131 °C | Cc1cccc(NC(=O)OC(C)(C)C)c1COc1cccn2c(C)c(C)nc12 |
| 270 to 273 °C | CC(C)(C)CNc1nc(Nc2cccc(NS(C)(=O)=O)c2)nc2[nH]cnc12 |
| 191 °C | CN1C(=O)NC(Cc2c[nH]c3ccccc23)C1CCc1cc(C(F)(F)F)cc(C(F)(F)F)c1 (stereo not drawn) |
| 106 to 108 °C | CC(=O)N(C)c1cc(Cl)ccc1C(=O)c1cnoc1C1CC1 |
| 76 to 80 °C | O=C(C[C@H](NC(=O)OCc1ccccc1)C(=O)Nc1cc(Cc2n[nH]c(=O)c3ccccc23)ccc1F)OCc1ccccc1 |
| 140 to 142 °C | O=C(O)C1Cc2ccccc2N1C(=O)CCS (stereo not drawn) |
| 110 to 112 °C | CCCC(=O)c1cnc2c(C)cccc2c1Nc1ccccc1C |
| 212 °C | CCCCc1cn(-c2c(Cl)cccc2Cl)c(=O)n1Cc1ccc(-c2ccccc2-c2nnn[nH]2)nc1 |
| 145 to 147 °C | CCCCc1nn(-c2cc([N+](=O)[O-])ccc2Cl)c(C(N)=O)c1Cc1ccc(Br)cc1F |
| 171 to 173 °C | COc1cc(CN2CCN(C(=O)c3cc4ccccc4oc3=O)CC2)cc(OC)c1OC |
| 110 °C | CN1CCC(c2c(O)cc(O)c3c(=O)cc(Sc4ccccc4Cl)oc23)C(O)C1 (stereo not drawn) |
